The values that follow come from patent publication US7026122B2, “Methods of assaying for compounds that inhibit premature translation termination and nonsense-mediated RNA decay” (PTC Therapeutics, Inc., priority 1999, dated 2006).

The test system of assay [1] is premature translation termination (luciferase reporter with premature stop codon). In words: Suppression assay in cells transiently transfected with stop codon luciferase plasmids. Conditions: cells transiently infected with pMLT49, pMLT54 or pMLT55h for 24 hours; 12 hour exposure; FIGS. 2A-C. It counts as cell-based. The method, then: Cells, transiently infected with the indicated plasmids for 24 hours, were exposed to the indicated concentration of G418 (panel A, pMLT49; panel B, pMLT54; panel C, pMLT55h). Luciferase activity was measured after a 12 hour exposure.

Assay [2] relates to premature translation termination and NMD (luciferase reporter with premature stop codon). In words: Cell-based assay, 293 cells stably transfected with pMLT55, luciferase activity. Conditions: 12 hour exposure. As for the experimental part:
The indicated independent clones were exposed to the indicated concentrations of G418. Luciferase activity was measured after a 12 hour exposure.
The indicated cell numbers were plated per well of a 96 well plate. Cells were exposed to the indicated concentrations of G418. Luciferase activity was measured after a 12 hour exposure on a robotic 96 well plate reader. Gentamycin was also used to inhibit NMD and premature translation termination.
On day 1, clone 55–31, a 293 cell line stably transfected with pMLT 55 (see FIG. 1) was plated in 96 well plates in the morning in DMEM media with 10% fetal bovine serum. Approximately 80 plates are plated at 40,000 cells per well in 100 μL. The cells were incubated overnight at 37° C.
On day two, test compounds (1 μL of 1 mM stock solution in 100 μL DMSO; 10 μM final concentration) were added. G418 (1 mg/ml) was added to column 12 of each plate as a control. The plates were incubated at 37° C. for 12–16 hours.
On day three, luciferase substrate was added to the cells and the plates were read on a Torcon automated luciferase assay reader for 96 well plates (see, e.g., FIGS. 3–4). Luciferase substrate is commercially available, e.g., from Promega.

Assay [3] deals with premature translation termination (stop codon-containing luciferase RNA). As to the kind of experiment: Biochemical suppression assay using RRL (rabbit reticulocyte lysate) and luciferase RNA. Conditions: WT or stop codon luciferase RNA, incubated 45 or 90 minutes, FIGS. 7A-B. As for the experimental part:
In vitro translation assays were performed in the presence of RRL, luciferase RNA (panel A, WT; panel B, stop codon) and the indicated concentrations of gentamycin. Reactions were incubated 45 or 90 minutes before luciferase activity was determined. WT and stop codon containing RNA are schematically shown. The reactions were performed in either a 96 or 384 well format. In vitro synthesized reporter RNA (see constructs in FIG. 5) was added to 15 μL of fully supplemented rabbit reticulocyte lysate according to standard methodology (prepared by the method of Jackson & Hunt, Methods in Enzymology 96:50–75 (1983). 0.5 to 1 μg of in vitro transcribed RNA was used per reaction. The reaction was mixed with 15 μL of a 2% DMSO solution containing 20 μM of test compound. The reaction was incubated for 90 minutes at 30° C. in a humidified incubator. Luciferase substrate was added and luciferase activity was read on a Torcon automated reader (see FIGS. 6–7).

In assay [4] the test system is premature stop codons in the dystrophin gene. As to conditions: mdx mouse, Barton-Davis et al. 1999; cited from earlier work.

Turning to `CN[C@@H]1[C@@H](O)[C@@H](O[C@@H]2[C@@H](O)[C@H](O[C@H]3O[C@H]([C@@H](C)O)[C@@H](O)[C@H](O)[C@H]3N)[C@@H](N)C[C@H]2N)OC[C@]1(C)O` [G418], in assay [1], the “G418-mediated suppression (luciferase activity)” value is reported as “not cell line specific”. Besides, the “G418-mediated suppression (luciferase activity), high throughput format” value in assay [2] (clone #31, 96 well plate, FIG. 4) was “suppression in a stably transfected 293 cell line (clone #31) in high throughput format”. Besides, the “G418-mediated suppression (relative luciferase activity, fold activation)” value in assay [2] (independent clones of 293 cells stably transfected with pMLT55, FIGS. 3A-B) was “suppression in various clones of stably transfected 293 cells”.
gentamycin: the “Suppression by gentamycin (luciferase activity)” value in assay [3] is given as “time dependent”.
Regarding gentamycin sulfate, the “Suppression of translational termination at premature stop codons” value in assay [4] is “found to suppress translational termination at premature stop codons in the dystrophin gene”.
